Our source for the IC50 and EC50 values is patent US12252481B2, “Anti-viral compounds” (Aligos Therapeutics, Inc., priority 2021, dated 2025).

One experiment deals with T1, SARS-Cov-2 3CLpro (Severe acute respiratory syndrome coronavirus 2, UniProt P0DTD1).
T1 construct: 3CLpro and HRV3C was added using a Multidrop Combi
In words: biochemical. Conditions: 3CLpro, 30 mins preincubation, SAMDI-MS; read-out: SARS-Cov-2 IC50 (class).

In another experiment the target is T2, HRV3C (Human rhinovirus 14, UniProt P03303).
T2 construct: 3CLpro and HRV3C was added using a Multidrop Combi
T2 sequence (P03303 1538-1719): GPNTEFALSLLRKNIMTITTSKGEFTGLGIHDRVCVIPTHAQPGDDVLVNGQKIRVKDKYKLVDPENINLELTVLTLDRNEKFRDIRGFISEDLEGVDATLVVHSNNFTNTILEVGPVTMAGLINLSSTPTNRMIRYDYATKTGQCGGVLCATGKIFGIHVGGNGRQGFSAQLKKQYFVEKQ
In words: biochemical. Set-up: species or system HRV. The note with it: HRV3C, 30 mins preincubation, SAMDI-MS; read-out: HRV IC50 (bound).

In experiment [1] the test system is human beta-coronavirus OC43. In words: OC43 coronavirus antiviral assay in HeLa cells (cytopathic effect, cell-titer-glo). Format: cell-based. Conditions: Betacoronavirus 1, OC43, HeLa, 144 h, 6 days at 33° C., read-out: EC50 (class). On the technique in general: Cytopathic effects are the visible damage that an infection or toxin causes in cultured cells.
Experiment [2] deals with B.1.1.7 lineage SARS-CoV-2. In words: microbe, parasite or virus in culture. It is filed as cell-based. Conditions: Severe acute respiratory syndrome coronavirus 2, 96 h; read-out: A549-dual_ACE2_TMPRSS2 (EC50).

Some results are limits rather than exact numbers.

In general, IC50 refers to the midpoint of a concentration-inhibition curve. As usually defined, the EC50 is the concentration that produces a half-maximal response. Take `C[C@@H](OC(F)F)[C@H](NC(=O)C(F)(F)F)C(=O)N1C[C@H]2[C@@H]([C@H]1C(=O)N[C@H](C#N)C[C@@H]1CCNC1=O)[C@H]1C=C[C@@H]2C1` [Example 98, (1S,3aR,4S,7R,7aS)-N-((S)-1-cyano-2-((S)-2-oxopyrrolidin-3-yl)ethyl)-2-(O-(difluoromethyl)-N-(2,2,2-trifluoroacetyl)-L-threonyl)-2,3,3a,4,7,7a-hexahydro-1H-4,7-methanoisoindole-1-carboxamide]: the IC50 at SARS-Cov-2 3CLpro is less than 20 nM; on HRV3C it was greater than 500 nM. Further, the EC50 in experiment [1] and in experiment [2] was less than 100 nM in each case.

Take `CC(C)(C)[C@H](NC(=O)C(F)(F)F)C(=O)N1C[C@H]2[C@@H]([C@H]1C(=O)N[C@H](C#N)C[C@@H]1CCNC1=O)[C@H]1CC[C@@H]2C1(F)F` [Example 92, (1S,3aS,4S,7R,7aR)—N-((S)-1-cyano-2-((S)-2-oxopyrrolidin-3-yl)ethyl)-2-((S)-3,3-dimethyl-2-(2,2,2-trifluoroacetamido)butanoyl)-8,8-difluorooctahydro-1H-4,7-methanoisoindole-1-carboxamide]: the IC50 was 20 to 200 nM at SARS-Cov-2 3CLpro and greater than 500 nM on HRV3C. For the same molecule, the EC50 in experiment [1] and in experiment [2] was 100 to 1000 nM in each case.

In the case of `COC1(C(=O)N[C@H](C(=O)N2C[C@H]3[C@@H]([C@H]2C(=O)N[C@H](C#N)C[C@@H]2CCNC2=O)[C@H]2C=C[C@@H]3C2)C(C)(C)C)CC1` [Compound 126], the IC50 on SARS-Cov-2 3CLpro was 20 to 200 nM; at HRV3C it was greater than 500 nM. For the same molecule, the EC50 in experiment [1] and in experiment [2] was 100 to 1000 nM throughout.

`CC(C)(C)[C@H](NC(=O)C(F)(F)F)C(=O)N1C[C@H]2[C@@H]([C@H]1C(=O)N[C@H](C#N)CC1C[C@H](C(F)(F)F)NC1=O)[C@H]1C=C[C@@H]2C1` (stereo partly drawn) [Compound 108, (1R,2S,3S,6R,7S)—N-[(1S)-1-cyano-2-[(5R)-2-oxo-5-(trifluoromethyl)pyrrolidin-3-yl]ethyl]-4-[(2S)-3,3-dimethyl-2-(2,2,2-trifluoroacetamido)butanoyl]-4-azatricyclo[5.2.1.0^{2,6}]dec-8-ene-3-carboxamide]: the IC50 is less than 20 nM on SARS-Cov-2 3CLpro and greater than 500 nM on HRV3C. Besides, the EC50 in experiment [1] and in experiment [2] was less than 100 nM throughout.

For `CC(C)(C)[C@H](NC(=O)C(F)(F)C(F)(F)F)C(=O)N1C[C@@H]2[C@H]3C[C@@H]([C@@H]2[C@H]1C(=O)N[C@H](C#N)C[C@@H]1OCCNC1=O)[C@H](F)C3` [Compound 118, (1S,2R,3S,6R,7S,9R)—N-[(1S)-1-cyano-2-[(2S)-3-oxomorpholin-2-yl]ethyl]-4-[(2S)-3,3-dimethyl-2-(2,2,3,3,3-pentafluoropropanamido)butanoyl]-9-fluoro-4-azatricyclo[5.2.1.0^{2,6}]decane-3-carboxamide], the IC50 on SARS-Cov-2 3CLpro is less than 20 nM; on HRV3C, greater than 500 nM. Also, the EC50 in experiment [1] and in experiment [2] was less than 100 nM in each case.

For the molecule `CC(C)(C)[C@H](NC(=O)C(F)(F)C(F)(F)F)C(=O)N1C[C@H]2[C@@H]([C@H]1C(=O)N[C@H](C#N)CC1CC3(COC3)NC1=O)[C@H]1C=C[C@@H]2C1` (stereo partly drawn) [Compound 107, (1R,2S,3S,6R,7S)—N-[(1S)-1-cyano-2-{6-oxo-2-oxa-5-azaspiro[3.4]octan-7-yl}ethyl]-4-[(2S)-3,3-dimethyl-2-(2,2,3,3,3-pentafluoropropanamido)butanoyl]-4-azatricyclo[5.2.1.0^{2,6}]dec-8-ene-3-carboxamide], the IC50 is less than 20 nM on SARS-Cov-2 3CLpro and greater than 500 nM on HRV3C. Further, the EC50 in experiment [1] and in experiment [2] was less than 100 nM throughout.

As to `CC(C)(C)[C@H](NC(=O)C(F)(F)F)C(=O)N1C[C@@H]2[C@H]3C[C@H](C[C@@H]3F)[C@@H]2[C@H]1C(=O)N[C@H](C#N)C[C@@H]1CCNC1=O` [Example 96], the IC50 at SARS-Cov-2 3CLpro was 20 to 200 nM; on HRV3C, greater than 500 nM. Also, the EC50 in experiment [1] and in experiment [2] was 100 to 1000 nM each time.

Take `COC1(C(=O)N[C@H](C(=O)N2C[C@H]3[C@@H]([C@H]2C(=O)N[C@H](C#N)C[C@@H]2CCNC2=O)[C@H]2C=C[C@@H]3C2)C(C)(C)C)CCC1` [Compound 127]: the 50% inhibitory concentration (IC50) at SARS-Cov-2 3CLpro was 20 to 200 nM; on HRV3C, greater than 500 nM. For the same molecule, the results for the EC50 in experiment [1] and in experiment [2] were 100 to 1000 nM and less than 100 nM, respectively.

For `CC(C)(C)[C@H](NC(=O)C(F)(F)F)C(=O)N1C[C@H]2[C@@H]([C@H]1C(=O)N[C@H](C#N)C[C@@H]1OCC3(CC3)NC1=O)[C@H]1C=C[C@@H]2C1` [Compound 120], the IC50 on SARS-Cov-2 3CLpro was less than 20 nM; on HRV3C it was greater than 500 nM. For the same molecule, the EC50 in experiment [1] and in experiment [2] was less than 100 nM throughout.

Consider `C[C@@H](OC1CC1)[C@H](NC(=O)C(F)(F)C(F)(F)F)C(=O)N1C[C@H]2[C@@H]([C@H]1C(=O)N[C@H](C#N)C[C@@H]1CCNC1=O)[C@H]1C=C[C@@H]2C1` [Compound 101, (1S,3aR,4S,7R,7aS)-N-((S)-1-cyano-2-((S)-2-oxopyrrolidin-3-yl)ethyl)-2-(O-cyclopropyl-N-(2,2,3,3,3-pentafluoropropanoyl)-L-threonyl)-2,3,3a,4,7,7a-hexahydro-1H-4,7-methanoisoindole-1-carboxamide], for which the figures for the IC50 on SARS-Cov-2 3CLpro and on HRV3C were less than 20 nM and greater than 500 nM, respectively. In addition, the EC50 in experiment [1] and in experiment [2] was less than 100 nM in each case.

Consider `CC1(C)NC(=O)[C@H](C[C@@H](C#N)NC(=O)[C@@H]2[C@@H]3[C@H](CN2C(=O)[C@@H](NC(=O)C(F)(F)F)C(C)(C)C)[C@@H]2C=C[C@H]3C2)O1` [Compound 105, (1S,3aR,4S,7R,7aS)-N-((S)-1-cyano-2-((S)-2,2-dimethyl-4-oxooxazolidin-5-yl)ethyl)-2-((S)-3,3-dimethyl-2-(2,2,2-trifluoroacetamido)butanoyl)-2,3,3a,4,7,7a-hexahydro-1H-4,7-methanoisoindole-1-carboxamide], for which the IC50 on SARS-Cov-2 3CLpro was 20 to 200 nM; on HRV3C it was greater than 500 nM. For the same molecule, the 50% effective concentration (EC50) in experiment [1] is 100 to 1000 nM; in experiment [2], less than 100 nM.

Consider `CC(C)(C)[C@H](NC(=O)C(F)(F)F)C(=O)N1C[C@H]2[C@@H]([C@H]1C(=O)N[C@H](C#N)C[C@@H]1OCCCNC1=O)[C@H]1C=C[C@@H]2C1` [Compound 121, (1R,2S,3S,6R,7S)—N-[(1S)-1-cyano-2-[(2S)-3-oxo-1,4-oxazepan-2-yl]ethyl]-4-[(2S)-3,3-dimethyl-2-(2,2,2-trifluoroacetamido)butanoyl]-4-azatricyclo[5.2.1.0^{2,6}]dec-8-ene-3-carboxamide], for which the IC50 is less than 20 nM on SARS-Cov-2 3CLpro and greater than 500 nM at HRV3C. For the same molecule, the EC50 in experiment [1] and in experiment [2] was less than 100 nM each time.

With `CC(C)(C)[C@H](NC(=O)C(F)(F)Cl)C(=O)N1C[C@H]2[C@@H]([C@H]1C(=O)N[C@H](C#N)C[C@@H]1OCCNC1=O)[C@H]1C=C[C@@H]2C1` [Compound 116], the IC50 at SARS-Cov-2 3CLpro was less than 20 nM; at HRV3C, greater than 500 nM. Moreover, the EC50 in experiment [1] and in experiment [2] was less than 100 nM each time.

`CC(C)(C)[C@H](NC(=O)C(F)(F)C(F)(F)F)C(=O)N1C[C@H]2[C@@H]([C@H]1C(=O)N[C@H](C#N)C[C@@H]1OCCNC1=O)[C@H]1C=C[C@@H]2C1` [Compound 115, (1S,3aR,4S,7R,7aS)-N-((S)-1-cyano-2-((S)-3-oxomorpholin-2-yl)ethyl)-2-((S)-3,3-dimethyl-2-(2,2,3,3,3 pentafluoropropanamido)butanoyl)-2,3,3a,4,7,7a-hexahydro-1H-4,7-methanoisoindole-1-carboxamide]: the IC50 is less than 20 nM at SARS-Cov-2 3CLpro and greater than 500 nM at HRV3C. Further, the EC50 in experiment [1] and in experiment [2] was less than 100 nM in each case.

On to `CC(C)(C)[C@H](NC(=O)C(F)(F)F)C(=O)N1C[C@@H]2[C@@H]3CC[C@@H](C3)[C@@H]2[C@H]1C(=O)N[C@H](C#N)CC1CC2(CC(F)(F)C2)NC1=O` (stereo partly drawn) [Compound 104, (1S,2S,3S,6R,7R)—N-[(1S)-1-cyano-2-{2,2-difluoro-6-oxo-5-azaspiro[3.4]octan-7-yl}ethyl]-4-[(2S)-3,3-dimethyl-2-(2,2,2-trifluoroacetamido)butanoyl]-4-azatricyclo[5.2.1.0^{2,6}]decane-3-carboxamide], for which the IC50 at SARS-Cov-2 3CLpro was less than 20 nM; at HRV3C it was greater than 500 nM. In addition, the EC50 in experiment [1] is 100 to 1000 nM; in experiment [2], less than 100 nM.

Regarding `CC(C)(C)[C@H](NC(=O)CC(F)(F)F)C(=O)N1C[C@H]2[C@@H]([C@H]1C(=O)N[C@H](C#N)C[C@@H]1Oc3ccncc3NC1=O)[C@H]1C=C[C@@H]2C1` [Compound 110, (1S,3aR,4S,7R,7aS)-N-((S)-1-cyano-2-((S)-3-oxo-3,4-dihydro-2H-pyrido[4,3-b][1,4]oxazin-2-yl)ethyl)-2-((S)-3,3-dimethyl-2-(3,3,3-trifluoropropanamido)butanoyl)-2,3,3a,4,7,7a-hexahydro-1H-4,7-methanoisoindole-1-carboxamide], the 50% inhibitory concentration (IC50) at SARS-Cov-2 3CLpro was less than 20 nM; at HRV3C, greater than 500 nM. In addition, the EC50 in experiment [1] and in experiment [2] was less than 100 nM each time.
